Data published in article PMC10480161, “Identification of potent and selective N-myristoyltransferase inhibitors of Plasmodium vivax liver stage hypnozoites and schizonts” (Nature Communications, 2023).
“And” between values parts separate entries of the source, which are not always exact repeats. Equal entries are not always repeated.

How the values were obtained:
P. vivax schizonts = assay: P. vivax liver stage assay, schizonts; assay type: cell-based, Plasmodium vivax; conditions: for Number of liverstage Schizonts per well: 20 µM, 8 dpi; for IC50: Plasmodium vivax, Hepatocyte, 120 h, primary human hepatocytes, treatment day 5 to 8 post-infection, isolates 2 and 3
Method: We next evaluated the candidate compounds against liver-stage P. vivax (Fig. 5). P. vivax sporozoites were obtained from three independent patient isolates and cultured in primary human hepatocytes from a single donor lot using a 384-well microculture system as described previously. Cells were infected and treated with NMTis at 20 µM beginning day 5 post-infection until day 8 when the infection rates were quantified by fluorescent microscopy.
(§1) Accordingly, we applied dose–response curves of all the tested NMTs on parasite isolates 2 and 3 over concentrations up to 20 µM (Fig. 5c, d, Source Data file). We observed similar kinetics for all inhibitors, with a gradual decrease in parasite load upon increasing the drug concentration. […] Nuclei were counted in each well using DAPI staining as a measure of toxicity (Supplementary Fig. 86, Supplementary Source data). We used the phosphatidylinositol 4-kinase inhibitor (PI4Ki), MMV390048, as a positive control for eliminating schizonts[37],[38].
(§2) Plasmodium vivax liver stage assays were performed as described previously. Cryopreserved primary human hepatocytes (Cat No. F00995-P) and hepatocyte culture medium (HCM) (InVitroGroTM CP Medium) were obtained from Bioreclamation IVT, Inc., (Baltimore, MD, USA). Briefly, we seeded 384-well plates with primary hepatocytes from a single donor lot at a density of 25,000 cells per well. We then infected the hepatocytes with 14,000 freshly hand-dissected sporozoites per well. Cells were exposed to the compounds at indicated concentrations from day 5 post-infection. We used Pi4K inhibitor MMV390048, at 20 µM, as a positive control to eliminate P. vivax liver schizonts. We then proceeded to feed cultures every day, replacing the compounds until day 8 post-infection. Cells were fixed with 4% PFA, permeabilized with 1% Triton X-100, blocked with 2% BSA, and stained with DAPI and PvUIS4 antibodies to detect schizonts and hypnozoites forms by confocal microscopy. For antibody dilutions, PvUIS4 (kind gift from Dr. Noah Sather, Seattle Children’s Research Institute) was diluted 1:250 and the secondary antibody was anti-mouse AlexaFluor-594 (Cat # A-11005; RRID: AB_2534073) diluted 1:1000. DAPI was diluted 1:2000. The images were processed, analyzed and outlier cells were removed using IMARIS (Bitplane Inc.) image analysis software.

P. vivax hypnozoites = assay: P. vivax liver stage assay, hypnozoites; assay type: cell-based, Plasmodium vivax; conditions: for Hypnozoites per well: Isolate 2, replicate wells (Figure 6d); for Number of liverstage hypnozoites per well: 8 dpi; for IC50: Hepatocyte, 120 h, primary human hepatocytes, treatment day 5 to 8 post-infection, isolate 2
Method: Finally, we evaluated the NMT-binding compounds against non-developing P. vivax hypnozoites. […] (Fig. 6A). […] We, therefore, evaluated the impact of all tested compounds on P. vivax hypnozoites using these two isolates.
as §2

PvNMT = PvNMT (Plasmodium vivax, UniProt A5K1A2); assay: NMT activity assay (CPM detection of free CoA), PvNMT; conditions: for IC50: PvNMT IC50, mean of two or more determinations; for SI: enzyme selectivity, HsNMT IC50/PvNMT IC50
Sequence of PvNMT (A5K1A2 entry or part of it): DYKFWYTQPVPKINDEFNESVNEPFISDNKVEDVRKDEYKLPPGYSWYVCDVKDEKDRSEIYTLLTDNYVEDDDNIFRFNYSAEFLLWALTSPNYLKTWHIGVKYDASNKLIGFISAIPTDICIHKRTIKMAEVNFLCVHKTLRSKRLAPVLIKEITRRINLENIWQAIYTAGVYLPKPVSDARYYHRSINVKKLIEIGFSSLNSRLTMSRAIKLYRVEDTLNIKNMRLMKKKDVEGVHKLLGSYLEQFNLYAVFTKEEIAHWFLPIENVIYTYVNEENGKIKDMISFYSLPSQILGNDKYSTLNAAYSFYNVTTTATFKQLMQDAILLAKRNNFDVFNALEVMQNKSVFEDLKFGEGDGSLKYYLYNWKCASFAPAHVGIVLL

HsNMT1 = molecular target: T1, HsNMT1 (Homo sapiens, UniProt P30419); assay: NMT activity assay (CPM detection of free CoA), HsNMT
T1 sequence (P30419 1-496): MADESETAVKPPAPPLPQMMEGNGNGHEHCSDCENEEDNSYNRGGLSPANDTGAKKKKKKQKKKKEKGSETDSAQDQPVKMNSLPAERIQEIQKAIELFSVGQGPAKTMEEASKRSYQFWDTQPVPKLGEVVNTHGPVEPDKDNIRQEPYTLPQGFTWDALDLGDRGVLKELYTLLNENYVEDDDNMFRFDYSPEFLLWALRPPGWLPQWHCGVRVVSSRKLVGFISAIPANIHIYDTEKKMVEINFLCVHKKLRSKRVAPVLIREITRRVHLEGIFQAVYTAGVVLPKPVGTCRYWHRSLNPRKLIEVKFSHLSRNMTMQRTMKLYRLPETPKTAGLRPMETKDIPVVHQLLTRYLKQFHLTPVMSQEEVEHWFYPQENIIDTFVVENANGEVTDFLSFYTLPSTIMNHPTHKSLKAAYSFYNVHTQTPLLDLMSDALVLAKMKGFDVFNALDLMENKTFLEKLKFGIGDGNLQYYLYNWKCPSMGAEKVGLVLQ

[1] = test system: primary human hepatocytes; assay: Nuclear counts (DAPI) in P. vivax-infected primary hepatocytes as measure of toxicity; assay type: cell-based; conditions: two technical replicates
Method: as §1, with “file).” for “file). We observed similar kinetics for all inhibitors, with a gradual decrease in parasite load upon increasing the drug concentration.”
as §2, with “For antibody dilutions, PvUIS4 (kind gift from Dr. Noah Sather, Seattle Children’s Research Institute) was diluted 1:250 and the secondary antibody was anti-mouse AlexaFluor-594 (Cat # A-11005; RRID: AB_2534073) diluted 1:1000.” left out
Supplementary Fig. 86. […] Nuclear […]
counts, normalized to DMSO controls, for NMT inhibitors across a dose response. Counts were ob-tained using DAPI staining from the P. vivax-infected wells quantified in Fig. 5d. Error bars represent the standard deviation of two technical replicates.
(1 picture or pasted object on this page, not shown here)

[2] = isolate 1, technical replicates (Fig. 5b)
[3] = isolate 2, technical replicates (Fig. 5b)
[4] = isolate 3, technical replicates (Fig. 5b)
[5] = 20 µM, isolate 1, technical replicates (Fig. 6C)
[6] = 20 µM, isolate 2, technical replicates (Fig. 6C)
[7] = 20 µM, isolate 3, technical replicates (Fig. 6C)

Structure (SMILES)	Number of liverstage Schizonts per well (P. vivax schizonts; [2])	Number of liverstage Schizonts per well (P. vivax schizonts; [3])	Number of liverstage Schizonts per well (P. vivax schizonts; [4])	Schizonts per well (P. vivax schizonts; Isolate 2, 1.25 uM)	Schizonts per well (P. vivax schizonts; Isolate 2, 5 uM)	Schizonts per well (P. vivax schizonts; Isolate 3, 1.25 uM)	Schizonts per well (P. vivax schizonts; Isolate 3, 2.5 uM)	Schizonts per well (P. vivax schizonts; Isolate 3, 5 uM)	IC50 (P. vivax schizonts) [nM]	Hypnozoites per well (P. vivax hypnozoites; 1.25 uM)	Hypnozoites per well (P. vivax hypnozoites; 2.5 uM)	Hypnozoites per well (P. vivax hypnozoites; 5 uM)	Hypnozoites per well (P. vivax hypnozoites; 10 uM)	Number of liverstage hypnozoites per well (P. vivax hypnozoites; [5])	Number of liverstage hypnozoites per well (P. vivax hypnozoites; [6])	Number of liverstage hypnozoites per well (P. vivax hypnozoites; [7]) [per well]	Hypnozoites per well (P. vivax hypnozoites; 20 uM)	IC50 (P. vivax hypnozoites; Plasmodium vivax) [nM]	IC50 (PvNMT)	Nucleus counts per well ([1]; 1 uM)	further results
Cc1nn(C)c(C)c1CCOc1cccnc1-c1ccnc(N2CCNCC2)c1 [Compound 12a]	5 per well and 3 per well and 1 per well	1 per well and 0 per well and 3 per well	2 per well and 6 per well	12 per well and 16 per well and 11 per well	8 per well and 10 per well and 7 per well	12 per well and 15 per well	12 per well and 9 per well	7 per well and 5 per well	3000 to 3800	12 and 10 and 8	8 and 7 and 13	6 and 8 and 7	1 and 3 and 0	8 per well (2×) and 0 per well	0 per well (2×) and 3 per well	0	0 (2×) and 3	5700	36.8 nM	15610 per well and 14860 per well	schizonts (fold change to DMSO) mean diff (P. vivax schizonts; isolate 1, 20 µM): 0.850; schizonts (fold change to DMSO) mean diff (P. vivax schizonts; isolate 2, 20 µM): 0.9245; schizonts (fold change to DMSO) mean diff (P. vivax schizonts; isolate 3, 20 µM): 0.7273; hypnozoites (fold change to DMSO) mean diff (P. vivax hypnozoites; isolate 1, 20 µM): 0.754; hypnozoites (fold change to DMSO) mean diff (P. vivax hypnozoites; isolate 2, 20 µM): 0.897; SI (PvNMT): 146.7; IC50 (HsNMT1): 5400 nM; Nucleus counts per well ([1]; 2.5uM): 15510 per well and 15490 per well; Nucleus counts per well ([1]; 5 uM): 15510 per well and 14150 per well; Nucleus counts per well ([1]; 10uM): 13830 per well and 15570 per well; Nucleus counts per well ([1]; 20uM, P. vivax-infected wells): 12100 per well and 13960 per well
Cc1nn(C)c(C)c1CCOc1cccnc1-c1cccc(N2CCNCC2)c1 [Compound 12b]	1 per well and 2 per well and 0 per well	2 per well (2×) and 4 per well	1 per well and 2 per well	12 per well and 11 per well and 9 per well	8 per well and 7 per well and 5 per well	11 per well and 15 per well	9 per well and 11 per well	8 per well and 10 per well	2300 to 4600	3 and 4 (2×)	3 and 4 (2×)	2 (2×) and 3	1 (2×) and 0	5 per well and 9 per well and 0 per well	1 per well and 0 per well (2×)	0	1 and 0 (2×)	1700	80.2 nM and 80.1 nM	16000 per well and 15090 per well	Schizonts per well (P. vivax schizonts; Isolate 2, 2.5 uM): 11 per well and 7 per well and 10 per well; Schizonts per well (P. vivax schizonts; Isolate 2, 10 uM): 2 per well and 4 per well; Schizonts per well (P. vivax schizonts; Isolate 3, 10 uM): 4 per well and 3 per well; Schizonts per well (P. vivax schizonts; Isolate 3, 20 uM (Fig. 5c-d)): 1 per well and 2 per well; SI (PvNMT): > 145 and > 150 and > 250; IC50 (HsNMT1): 20800 nM; Nucleus counts per well ([1]; 2.5uM): 15680 per well and 16210 per well; Nucleus counts per well ([1]; 5 uM): 15950 per well and 14130 per well; Nucleus counts per well ([1]; 10uM): 15200 per well and 15960 per well; Nucleus counts per well ([1]; 20uM, P. vivax-infected wells): 12570 per well and 13810 per well
c1cncc(CCOc2ccc3ccccc3c2-c2ccnc(N3CCNCC3)c2)c1 [Compound 30c]	0 per well (2×) and 6 per well	3 per well and 4 per well and 6 per well	1 per well and 3 per well	12 per well and 14 per well and 13 per well	7 per well and 10 per well and 9 per well	13 per well and 10 per well	12 per well and 9 per well	7 per well and 10 per well	2700 to 4900	8 and 15 and 7	5 and 6 and 12	0 and 5 and 13	5 and 0 and 4	0 per well and 1 per well and 4 per well	4 per well (2×) and 1 per well	0	4 (2×) and 1	3800	248 nM	12390 per well and 13530 per well	Schizonts per well (P. vivax schizonts; Isolate 2, 2.5 uM): 9 per well and 14 per well and 11 per well; Schizonts per well (P. vivax schizonts; Isolate 2, 10 uM): 4 per well and 5 per well and 6 per well; Schizonts per well (P. vivax schizonts; Isolate 2, 20 uM (Fig. 5c-d)): 3 per well and 4 per well and 6 per well; schizonts (fold change to DMSO) mean diff (P. vivax schizonts; isolate 1, 20 µM): 0.900; schizonts (fold change to DMSO) mean diff (P. vivax schizonts; isolate 2, 20 µM): 0.7547; schizonts (fold change to DMSO) mean diff (P. vivax schizonts; isolate 3, 20 µM): 0.8636; inhibition at 20 µM (P. vivax hypnozoites; Plasmodium vivax, 20 µM): > 75%; hypnozoites (fold change to DMSO) mean diff (P. vivax hypnozoites; isolate 1, 20 µM): 0.939; hypnozoites (fold change to DMSO) mean diff (P. vivax hypnozoites; isolate 2, 20 µM): 0.690; Nucleus counts per well ([1]; 2.5uM): 13960 per well and 13570 per well; Nucleus counts per well ([1]; 5 uM): 14060 per well and 13800 per well; Nucleus counts per well ([1]; 10uM): 13530 per well and 13880 per well; Nucleus counts per well ([1]; 20uM, P. vivax-infected wells): 14090 per well and 14800 per well
